Tested on: NCI-H211 tumor spheroids, viability percent test/control
Assay: Anticancer human tumor NCI-H211 cell line growth inhibition;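 further: spheroids exposed to agents for seven days before readout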
Conditions: spheroids with HUVEC and MSC; for IC50: curve of first compound; for viability, T/C: stronger effect = lower value
In short: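 Complex tumor spheroids combined malignant cells with endothelial cells and mesenchymal stem cells. DNA-damaging drugs and DNA repair inhibitors were tested alone and in combination, at half-log dilutions down from clinical Cmax (top 10 microM if Cmax unknown), 0.25% DMSO final.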

[1] = second compound 1 µM, first compound 0.0316 µM
[2] = second compound 1 µM, first compound 0.1 µM
[3] = second compound 1 µM, first compound 0.316 µM
[4] = second compound 1 µM, first compound 1 µM
[5] = second compound 1 µM, first compound 3.16 µM
[6] = second compound 1 µM, first compound 10 µM
[7] = second compound 3.16 µM, first compound 0.0316 µM
[8] = second compound 3.16 µM, first compound 0.1 µM
[9] = second compound 3.16 µM, first compound 0.316 µM
[10] = second compound 3.16 µM, first compound 1 µM
[11] = second compound 3.16 µM, first compound 3.16 µM
[12] = second compound 3.16 µM, first compound 10 µM
[13] = second compound 10 µM, first compound 0.0316 µM
[14] = second compound 10 µM, first compound 0.1 µM
[15] = second compound 10 µM, first compound 0.316 µM
[16] = second compound 10 µM, first compound 1 µM
[17] = second compound 10 µM, first compound 3.16 µM
[18] = second compound 10 µM, first compound 10 µM
[19] = second compound 31.6 µM, first compound 0.0316 µM
[20] = second compound 31.6 µM, first compound 0.1 µM
[21] = second compound 31.6 µM, first compound 0.316 µM
[22] = second compound 31.6 µM, first compound 1 µM
[23] = second compound 31.6 µM, first compound 3.16 µM
[24] = second compound 31.6 µM, first compound 10 µM
[25] = second compound 100 µM, first compound 0.0316 µM
[26] = second compound 100 µM, first compound 0.1 µM
[27] = second compound 100 µM, first compound 0.316 µM
[28] = second compound 100 µM, first compound 1 µM
[29] = second compound 100 µM, first compound 3.16 µM
[30] = second compound 100 µM, first compound 10 µM

Structure (SMILES)	IC50 (second compound 1 µM) [nM]	IC50 (second compound 3.16 µM) [nM]	IC50 (second compound 10 µM) [nM]	IC50 (second compound 31.6 µM) [nM]	IC50 (second compound 100 µM) [nM]	viability, T/C [1] [%]	viability, T/C [2] [%]	viability, T/C [3] [%]	viability, T/C [4] [%]	viability, T/C [5] [%]	viability, T/C [6] [%]	viability, T/C [7] [%]	viability, T/C [8] [%]	viability, T/C [9] [%]	viability, T/C [10] [%]	viability, T/C [11] [%]	viability, T/C [12] [%]	viability, T/C [13] [%]	viability, T/C [14] [%]	viability, T/C [15] [%]	also measured
CC(C)n1c(=O)n(C)c2cnc3cc(F)c(-c4ccc(OCCCN5CCCCC5)nc4)cc3c21 + Cn1nnc2c(C(N)=O)ncn2c1=O	662	781	118	< 31.6	< 31.6	70.8	69.4	54	48.1	28.4	9.99	66	66.1	63.8	42.6	30.7	8.69	61.6	52.2	35.7	viability, T/C [16]: 34.7%; viability, T/C [17]: 20.3%; viability, T/C [18]: 4.95%; viability, T/C [19]: 19.9%; viability, T/C [20]: 16.5%; viability, T/C [21]: 10.7%; viability, T/C [22]: 8.57%; viability, T/C [23]: 5.7%; viability, T/C [24]: 0.75%; viability, T/C [25]: 4.09%; viability, T/C [26]: 3.62%; viability, T/C [27]: 2.44%; viability, T/C [28]: 1.96%; viability, T/C [29]: 1.15%; viability, T/C [30]: 0.49%
CC1COCCN1c1cc(-c2ccnn2C)c2ccnc(-c3ccn[nH]3)c2n1 (stereo not given) + Cn1nnc2c(C(N)=O)ncn2c1=O	< 31.6	< 31.6	< 31.6	< 31.6	< 31.6	11.4	1.45	0.83	0.74	0.72	1.43	9.67	1.34	0.86	0.68	0.72	1.44	6.59	0.88	0.79	viability, T/C [16]: 0.62%; viability, T/C [17]: 0.67%; viability, T/C [18]: 1.16%; viability, T/C [19]: 1.39%; viability, T/C [20]: 1.09%; viability, T/C [21]: 0.74%; viability, T/C [22]: 0.59%; viability, T/C [23]: 0.66%; viability, T/C [24]: 1.11%; viability, T/C [25]: 1.19%; viability, T/C [26]: 1.1%; viability, T/C [27]: 0.95%; viability, T/C [28]: 0.67%; viability, T/C [29]: 0.65%; viability, T/C [30]: 1.12%
COc1cc(C)[nH]c(=O)c1CN1CCc2c(Cl)cc(C(OC)C3COC3)c(Cl)c2C1=O (stereo not given) + Cn1nnc2c(C(N)=O)ncn2c1=O	> 10000	> 10000	> 10000	1330	< 31.6	92.7	90.4	90.6	82.7	81.3	72.8	92.6	99.3	90	82.3	70.2	81.5	99.8	98.7	86.6	viability, T/C [16]: 86.5%; viability, T/C [17]: 70.2%; viability, T/C [18]: 56.1%; viability, T/C [19]: 56.4%; viability, T/C [20]: 54.6%; viability, T/C [21]: 59.6%; viability, T/C [22]: 56.3%; viability, T/C [23]: 30.8%; viability, T/C [24]: 30.8%; viability, T/C [25]: 31.5%; viability, T/C [26]: 33.4%; viability, T/C [27]: 19.6%; viability, T/C [28]: 13.8%; viability, T/C [29]: 12.6%; viability, T/C [30]: 12%
